Measured values as given in patent US8865758B2, “Pyrazolo piperidine derivatives as NADPH oxidase inhibitors” (Genkyotex SA, priority 2010, dated 2014).

How the values were obtained:
[1] = target: T1, NOX (Homo sapiens, UniProt P04839); test: Amplex Red measurement of extracellular hydrogen peroxide (NOX activity) in DMSO-differentiated HL60 cells; format: cell-based
T1 construct: HL60 differentiation to the neutrophil phenotype was triggered by adding Me2SO; endogenous in cells; host or cells: HL-60 cells differentiated with Me2SO (1.25% v/v, 6 days) to the neutrophil phenotype
T1 sequence (P04839 2-570 limits assumed): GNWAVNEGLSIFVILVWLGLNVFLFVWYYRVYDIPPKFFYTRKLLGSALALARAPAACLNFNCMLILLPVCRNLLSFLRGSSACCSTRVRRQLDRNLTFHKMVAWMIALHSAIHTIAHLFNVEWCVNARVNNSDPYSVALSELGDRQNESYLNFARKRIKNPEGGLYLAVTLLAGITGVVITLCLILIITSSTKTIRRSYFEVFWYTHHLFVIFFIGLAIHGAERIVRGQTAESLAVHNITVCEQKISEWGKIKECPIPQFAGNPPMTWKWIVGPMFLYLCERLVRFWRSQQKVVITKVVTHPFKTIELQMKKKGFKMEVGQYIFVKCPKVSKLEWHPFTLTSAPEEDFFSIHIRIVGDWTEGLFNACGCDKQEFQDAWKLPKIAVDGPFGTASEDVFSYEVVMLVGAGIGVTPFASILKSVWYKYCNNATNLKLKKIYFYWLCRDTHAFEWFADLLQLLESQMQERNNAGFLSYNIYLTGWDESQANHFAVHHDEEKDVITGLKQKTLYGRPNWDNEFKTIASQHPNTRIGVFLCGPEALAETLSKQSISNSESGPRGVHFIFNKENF
T1 sequence (P13498 1-195 partner): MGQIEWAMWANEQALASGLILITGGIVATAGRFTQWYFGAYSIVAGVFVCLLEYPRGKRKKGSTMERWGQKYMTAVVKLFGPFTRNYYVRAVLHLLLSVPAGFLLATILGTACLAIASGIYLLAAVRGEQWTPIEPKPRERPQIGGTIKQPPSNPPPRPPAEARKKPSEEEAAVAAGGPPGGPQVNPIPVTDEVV
Procedure: Human acute myeloid leukemia cell line HL-60 was cultured in RPMI 1640 (Invitrogen) supplemented with 10% heat-inactivated calf serum, 2 mM glutamine, 100 U/mL penicillin (Sigma), and 100 μg streptomycin (Sigma) at 37° C. under a humidified atmosphere of 5% CO2. HL60 differentiation to the neutrophil phenotype was triggered by adding Me2SO (final concentration 1.25% v/v for 6 days) to the culture medium.
Extracellular hydrogen peroxide was measured using Amplex UltraRed (Molecular Probes). Cells were trypsinized (1× Trypsin-EDTA), collected by centrifugation, and resuspended in HBSS supplemented with 1% glucose. Cells were seeded into black 96-well plates at a density of 50′000 cells in 200 μl testing buffer (HBSS 1% glucose containing 0.005 U/mL horseradish peroxidase (Roche) and 50 μM Amplex Red in the presence or absence of compounds according to the invention. As a control, DPI was included at a final concentration of 10 μM The plates were placed in the fluorescent Optima Fluorescent plate reader and kept at 37° C. during 20 min. Fluorescence was measured for […] with excitation and emission wavelengths of 544 nm and 590 nm respectively. NOX activities were expressed as % of the activity in control cells. Residual activity of DPI-treated cells was usually <10%. […]
The Table 3 below summarizes the IC50 of NOX activity as measured by Amplex Red using DMSO-differentiated HL60 cells as described above: […]

[2] = test system: NOX; test: Chemiluminescence (luminol) ROS measurement in cells; format: cell-based, human; conditions: usually
Procedure: ROS was measured using the chemiluminescent probe luminol. Cells were cultured and plated as for Amplex Red except that the Amplex Red agent was replaced by 10 μg/mL luminol (Sigma 09235). Light emission was recorded continuously at 37° C. for 60 minutes using the luminescence function of the FluoStar Optima fluorescent plate reader. The mean of the four blank values was subtracted from each corrected value for each time point. NOX activities were expressed as % of the activity in control cells. Residual activity of DPI-treated cells was usually <10%.

[3] = test system: NOX; test: Nitroblue tetrazolium (NBT) superoxide test in cells; format: cell-based, human; conditions: DPI 10 μM, usually
Procedure: Human microglia cell line (HMC3, human microglia clone 3) (Janabi et al., 1995, Neurosci. Lett. 195:105) were cultured in MEM (Eagle's minimum essential medium) containing 10% FBS with 50 U/ml penicillin G sodium 50 μg/ml streptomycin sulfate, and incubated at 37° C. for 24 hours. IFN-γ (human IFN-γ, Roche. 11 040 596 001) was added to the culture medium for a final concentration of 10 ng/ml 24 h, before detection of O2^− formation. […]
Intracellular and extracellular superoxide was measured by a colorimetric technique using a quantitative nitroblue tetrazolium (NBT) test. SOD-inhibitable conversion of NBT to formazan, a fine blue precipitate, in the presence of superoxide anion was measured using Fluostar Optima spectrometer (BMG labtech). […] The absorption was measured at 630 nm. For calculation, the absorbance at 630 nm was normalized for each individual well. […] NOX activities were expressed as % of the activity in control cells. […]

[4] = test system: NOX; test: H2DCF-DA fluorescence in TGF-β stimulated HUVEC; format: cell-based, human; conditions: usually
Procedure: HUVEC are cultured in endothelial basal medium supplemented with hydrocortisone (1 μg/mL, Calbiochem), bovine brain extract (12 μg/mL), gentamicin (50 μg/mL, Calbiochem), amphotericin B (50 ng/mL, Calbiochem EGF (10 ng/mL, and 10% FCS until the fourth passage. When the fifth passage was started, cells were cultured with a lower concentration of FCS (2%) in the absence of EGF, if not indicated otherwise. All experiments were done with cells of the fifth passage. The cells were incubated with OxLDL (oxidized low-density lipoprotein) or its buffer as control for 24 h, before detection of O2^− formation.
HUVEC were plated on coverslips and made quiescent overnight in 0.5% BSA before stimulation with TGF-β. Cells were loaded for 10 minutes with 5 μM CM-H2DCF-DA in phenol-red-free medium in the dark and then treated with TGF-β (R&D Systems) in the presence or absence of compounds according to the invention. Cells were then visualized by immunofluorescence microscopy after fixation and staining of the nuclei with DAPI or examined live using confocal microscopy. DCF fluorescence was visualized at an excitation wavelength of 488 nm and emission at 515 to 540 nm. […] For calculation, the absorbance at […] was normalized to absorbance at […] for each individual well. […] NOX activities were expressed as % of the activity in control cells. […]

Row | SMILES | IC50 [1] [µM] | other results
1 | O=c1c2c([nH]n1-c1ccc(F)cc1Cl)CCNC2 [Compound 4, 2-(2-chloro-4-fluorophenyl)-1,2,4,5,6,7-hexahydro-3H-pyrazolo[4,3-c]pyridin-3-one] | < 5 | –
2 | CN1N=C2CCN(Cc3ccc(Cl)cc3)CC2(Cc2cccnc2)C1=O (stereo not shown) [Compound 87, 5-(4-chlorobenzyl)-2-methyl-3a-(pyridin-3-ylmethyl)-2,3a,4,5,6,7-hexahydro-3H-pyrazolo[4,3-c]pyridin-3-one] | < 5 | –
3 | CN1CCC(n2[nH]c3c(c2=O)CN(Cc2ccc(Cl)nc2)CC3)CC1 [Compound 96, 5-[(6-chloropyridin-3-yl)methyl]-2-(1-methylpiperidin-4-yl)-1,2,4,5,6,7-hexahydro-3H-pyrazolo[4,3-c]pyridin-3-one] | < 5 | –
4 | O=c1c2c([nH]n1Cc1ccccc1)CCN(Cc1ccc(Cl)nc1)C2 [Compound 97, 2-benzyl-5-[(6-chloropyridin-3-yl)methyl]-1,2,4,5,6,7-hexahydro-3H-pyrazolo[4,3-c]pyridin-3-one] | < 5 | –
5 | CS(=O)(=O)N1CCc2[nH]n(Cc3ccccc3)c(=O)c2C1 [Compound 102, 2-benzyl-5-(methylsulfonyl)-1,2,4,5,6,7-hexahydro-3H-pyrazolo[4,3-c]pyridin-3-one] | < 5 | –
6 | Cc1ccc(S(=O)(=O)N2CCc3[nH]n(Cc4cn5ccccc5n4)c(=O)c3C2)cc1 [Compound 103, 2-(imidazo[1,2-a]pyridin-2-ylmethyl)-5-[(4-methylphenyl)sulfonyl]-1,2,4,5,6,7-hexahydro-3H-pyrazolo[4,3-c]pyridin-3-one] | < 5 | –
7 | c1ccc([I+]c2ccccc2)cc1 [DPI, Diphenyl-iodonium] | – | Residual activity of DPI-treated cells (NOX activity as % of control cells) [2]: < 10%; Residual activity of DPI-treated cells (NOX activity as % of control cells) [3]: < 10%; Residual activity of DPI-treated cells (NOX activity as % of control cells) [4]: < 10%

The next lines start with results.

Row | IC50 [1] [µM] | SMILES | other results
8 | < 5 | O=c1c2c([nH]n1Cc1ccc(Cl)cc1)CCN(Cc1ccccc1)C2 [Compound 1, 5-benzyl-2-(4-chlorobenzyl)-1,2,4,5,6,7-hexahydro-3H-pyrazolo[4,3-c]pyridin-3-one] | –
9 | < 5 | O=c1c2c([nH]n1-c1ccc(F)cc1Cl)CCN(Cc1ccccc1)C2 [Compound 2, 5-benzyl-2-(2-chloro-4-fluorophenyl)-1,2,4,5,6,7-hexahydro-3H-pyrazolo[4,3-c]pyridin-3-one] | –
10 | < 5 | O=c1c2c([nH]n1-c1cccc(OCc3ccccc3)c1)CCN(Cc1ccccc1)C2 [Compound 3, 5-benzyl-2-[3-(benzyloxy)phenyl]-1,2,4,5,6,7-hexahydro-3H-pyrazolo[4,3-c]pyridin-3-one] | –
11 | < 5 | Cn1[nH]c2c(c1=O)CN(Cc1ccccc1)CC2 [Compound 8, 5-benzyl-2-methyl-1,2,4,5,6,7-hexahydro-3H-pyrazolo[4,3-c]pyridin-3-one] | –
12 | < 5 | O=c1c2c([nH]n1Cc1ccccc1)CCN(Cc1ccc(Cl)cc1)C2 [Compound 9, 2-benzyl-5-(4-chlorobenzyl)-1,2,4,5,6,7-hexahydro-3H-pyrazolo[4,3-c]pyridin-3-one] | –
13 | < 5 | O=c1c2c([nH]n1Cc1ccccc1)CCN(Cc1ccccc1)C2 [Compound 12, 2,5-dibenzyl-1,2,4,5,6,7-hexahydro-3H-pyrazolo[4,3-c]pyridin-3-one] | –
14 | < 5 | COc1cccc(-n2[nH]c3c(c2=O)CN(Cc2ccccc2)CC3)c1 [Compound 24, 5-benzyl-2-(3-methoxyphenyl)-1,2,4,5,6,7-hexahydro-3H-pyrazolo[4,3-c]pyridin-3-one] | –
